Consider 16 molecules from patent publication US8071797B2 (priority 2008, dated 2011).

One may read the IC50 as the concentration that inhibits the measured activity by half. A lower IC50 goes with greater potency in that assay.

This experiment concerns the target T1, HCV polymerase (NS5B570n-Con1) (Hepatitis C virus genotype 1b, UniProt Q9WMX2).
T1 construct: contains a 21 amino acid deletion at the C-terminus relative to the full-length HCV polymerase; 6-histidine (N); made in house; host or cells: E. coli BL21 (DE) pLysS
Nature of the experiment: HCV NS5B RNA polymerase activity assay. The experiment is classed as biochemical, HCV Con1 strain. The following applies: IC50 NS5B polymerase assay, Table I. How it is done: The enzymatic activity of HCV polymerase (NS5B570n-Con1) was measured as the incorporation of radiolabeled nucleotide monophosphates into acid insoluble RNA products. Unincorporated radiolabeled substrate was removed by filtration and scintillant was added to the washed and dried filter plate containing radiolabeled RNA product. The amount of RNA product generated by NS5B570-Con1 at the end of the reaction was directly proportional to the amount of light emitted by the scintillant.
The N-terminal 6-histidine tagged HCV polymerase, derived from HCV Con1 strain, genotype 1b (NS5B570n-Con1) contains a 21 amino acid deletion at the C-terminus relative to the full-length HCV polymerase and was purified from E. coli strain BL21 (DE) pLysS. The construct, containing the coding sequence of HCV NS5B Con1 (GenBank accession number AJ242654) was inserted into the plasmid construct pETI 7b, downstream of a T7 promoter expression cassette and transformed into E. coli. A single colony was grown overnight as a starter culture and later used inoculate 10 L of LB media supplemented with 100 μg/mL ampicillin at 37° C. Protein expression was induced by the addition of 0.25 mM isopropyl-β-D-thiogalactopyranoside (IPTG) when optical density at […] of the culture was between 0.6 and 0.8 and cells were harvested after 16 to 18 h at 30° C. NS5B570n-Con1 was purified to homogeneity using a three-step protocol including subsequent column chromatography on Ni-NTA, SP-Sepharose HP and Superdex 75 resins.
Each 50 μl enzymatic reaction contained 20 nM RNA template derived from the complementary sequence of the Internal Ribosome Entry Site (cIRES), 20 nM NS5B570n-Con1 enzyme, 0.5 μCi of tritiated UTP (Perkin Elmer catalog no. TRK-412; specific activity: 30 to 60 Ci/mmol; stock solution concentration from 7.5×10^-5 M to 20.6×10^-6 M), 1 μM each ATP, CTP, and GTP, 40 mM Tris-HCl pH 8.0, 40 mM NaCl, 4 mM DTT (dithiothreitol), 4 mM MgCl2, and 5 μl of compound serial diluted in DMSO. Reaction mixtures were assembled in 96-well filter plates (cat #MADVN0B, Millipore Co.) and incubated for 2 h at 30° C. Reactions were stopped by addition of 10% final (v/v) trichloroacetic acid and incubated for 40 min at 4° C. Reactions were filtered, washed with 8 reaction volumes of 10% (v/v) trichloroacetic acetic acid, 4 reaction volumes of 70% (v/v) ethanol, air dried, and 25 μl of scintillant (Microscint 20, Perkin-Elmer) was added to each reaction well.
The amount of light emitted from the scintillant was converted to counts per minute (CPM) on a Topcount® plate reader (Perkin-Elmer, Energy Range: Low, Efficiency Mode Normal, Count Time: 1 min, Background Subtract: none, Cross talk reduction: Off).
Data was analyzed in Excel® (Microsoft®) and ActivityBase® (idbsg). The reaction in the absence of enzyme was used to determine the background signal, which was subtracted from the enzymatic reactions. Positive control reactions were performed in the absence of compound, from which the background corrected activity was set as 100% polymerase activity. All data was expressed as a percentage of the positive control. The compound concentration at which the enzyme-catalyzed rate of RNA synthesis was reduced by 50% (IC50) was calculated by fitting
[formula] equation (t) to the data.where “Y” corresponds to the relative enzyme activity (in %), “% Min” is the residual relative activity at saturating compound concentration, “% Max” is the relative maximum enzymatic activity, “X” corresponds to the compound concentration, and “S” is the Hill coefficient (or slope).
On to `CNC(=O)c1c(-c2ccc(Oc3ccc(F)cc3)cc2)oc2cc(N(CCCC#N)S(C)(=O)=O)c(C3CC3)cc12` [Compound I-96], for which the IC50 was 0.007 µM.

`CNC(=O)c1c(-c2ccc(Oc3ccc(F)cc3)cc2)oc2cc(N(CC(O)CN)S(C)(=O)=O)c(C3CC3)cc12` (stereo not shown) [Compound I-97, 6-[(3-Amino-2-hydroxy-propyl)-methanesulfonyl-amino]-5-cyclopropyl-2-[4-(4-fluoro-phenoxy)-phenyl]-benzofuran-3-carboxylic acid methylamide]: it took 0.048 µM to reach half-maximal inhibition (IC50).

Molecule `CNC(=O)c1c(-c2ccc(Oc3ccc(F)cc3)cc2)oc2cc(N(C3CCC(N)CC3)S(C)(=O)=O)c(C3CC3)cc12` (stereo not shown) [Compound I-98, 6-[(4-Amino-cyclohexyl)-methanesulfonyl-amino]-5-cyclopropyl-2-[4-(4-fluoro-phenoxy)-phenyl]-benzofuran-3-carboxylic acid methylamide] showed an IC50 of 0.044 µM.

In the case of `CNC(=O)c1c(-c2ccc(Oc3ccc(F)cc3)cc2)oc2cc(N([C@H]3CC[C@@H](O)CC3)S(C)(=O)=O)c(C3CC3)cc12` [Compound I-99], the IC50 was 0.023 µM.

As for `CNC(=O)c1c(-c2ccc(Oc3ccc(F)cc3)cc2)oc2cc(N([C@H]3CC[C@H](O)CC3)S(C)(=O)=O)c(C3CC3)cc12` [Compound I-100], the midpoint of inhibition, the IC50, lay at 0.025 µM.

For the molecule `CNC(=O)c1c(-c2ccc(Oc3ccccc3)cc2)oc2cc(-c3c(C)n[nH]c3C)c(C3CC3)cc12` [Compound I-101], the IC50 was 0.318 µM.

`CNC(=O)c1c(-c2ccc(Oc3ccc(F)cc3)cc2)oc2cc(C(C)(C)O)c(OC)cc12` [Compound I-103] came in with an IC50 of 0.037 µM.

For the molecule `CNC(=O)c1c(-c2ccc(Oc3ccc(F)cc3)cc2)oc2cc(N(CCCO)S(C)(=O)=O)c(C3CC3)cc12` [Compound I-106], the IC50 was 0.018 µM.

For the molecule `CNC(=O)c1c(-c2ccc(Oc3ccc(F)cc3)cc2)oc2cc(N(CC3COC(=O)N3)S(C)(=O)=O)c(C3CC3)cc12` (stereo not shown) [Compound I-108], the 50% inhibitory concentration (IC50) stood at 0.026 µM. The IC50 values of the last two molecules are within 1.5-fold of each other.

The molecule `CNC(=O)c1c(-c2ccc(Oc3ccc(F)cc3)cc2)oc2cc(C3CCCN3C(C)=O)c(OC)cc12` (stereo not shown) [Compound I-109, 6-(1-acetyl-pyrrolidin-2-yl)-2-[4-(4-fluoro-phenoxy)-phenyl]-5-methoxy-benzofuran-3-carboxylic acid methylamide] returned an IC50 of 0.044 µM.

With `CNC(=O)c1c(-c2ccc(Oc3ccc(F)cc3)cc2)oc2cc(C(C)(C)O)c(C3CC3)cc12` [Compound I-110, 5-Cyclopropyl-2-[4-(4-fluoro-phenoxy)-phenyl]-6-(1-hydroxy-1-methyl-ethyl)-benzofuran-3-carboxylic acid methylamide], inhibition was half-maximal at 0.039 µM (IC50).

`CNC(=O)c1c(-c2ccc(Oc3ccc(F)cc3)cc2)oc2cc(C3CCCN3)c(OC)cc12` (stereo not shown) [Compound I-111, 2-[4-(4-Fluoro-phenoxy)-phenyl]-5-methoxy-6-pyrrolidin-2-yl-benzofuran-3-carboxylic acid methylamide] gave a half-maximal inhibitory concentration (IC50) of 0.933 µM.

In turn, `CNC(=O)c1c(-c2ccc(Oc3ccc(F)cc3)cc2)oc2cc(C3CCCN3S(C)(=O)=O)c(OC)cc12` (stereo not shown) [Compound I-112, 2-[4-(4-Fluoro-phenoxy)-phenyl]-6-(1-methanesulfonyl-pyrrolidin-2-yl)-5-methoxy-benzofuran-3-carboxylic acid methylamide] showed an IC50 of 0.349 µM. This IC50 is about 2.7-fold lower than that of the molecule before.

`CNC(=O)c1c(-c2ccc(Oc3ccc(F)cc3)cc2)oc2cc(N(CCCSC)S(C)(=O)=O)c(C3CC3)cc12` [Compound I-113] came in with an IC50 of 0.018 µM.

`CNC(=O)c1c(-c2ccc(Oc3ccc(F)cc3)cc2)oc2cc(N(CCCS(C)(=O)=O)S(C)(=O)=O)c(C3CC3)cc12` [Compound I-114]: 0.021 µM corresponded to half-maximal inhibition (IC50).

`CNC(=O)c1c(-c2ccc(Oc3ccc(F)cc3)cc2)oc2cc(N(CC(F)(F)CN)S(C)(=O)=O)c(C3CC3)cc12` [Compound I-115, 6-[(3-Amino-2,2-difluoro-propyl)-methanesulfonyl-amino]-5-cyclopropyl-2-[4-(4-fluoro-phenoxy)-phenyl]-benzofuran-3-carboxylic acid methylamide]: the IC50 is 0.029 µM.
